Experimental findings from ChEMBL document CHEMBL1201862, “PubChem BioAssay data set” (2004) are described below.

Among the test systems are SR; OVCAR-8; NCI-H522; HCC 2998; SF-268; OVCAR-4; HOP-92; RPMI-8226; SK-MEL-2; COLO 205; MOLT-4; NCI-H23; A549; HCT-15; SN12C; HT-29; ACHN; SF-295; DMS-114; TK-10.
Common to all, as to test: NCI tumour cell line growth inhibition, 48 h

The structures appear in SMILES notation.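 Protocol summary: plate cells (96-well), add compound at 5 concentrations, incubate 48 h, interpolate endpoints linearly. GI50 is the concentration that inhibits growth by half.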 The source made the active and inactive calls. Cut-off read from the data, not from the text of the source: active = GI50 up to about 1.1 µM and inactive = higher.

With `Cc1nc2c(c(=O)[nH]1)S/C(=C(/C#N)c1nc3ccccc3[nH]1)N2c1ccccc1`, the GI50 with SR, with OVCAR-8, with NCI-H522, in the assay on HCC 2998, with SF-268 and in the assay with OVCAR-4 was > 100 µM (inactive) throughout. The GI50 with HOP-92, with RPMI-8226, with SK-MEL-2, in the assay with COLO 205, with MOLT-4 and in the assay with NCI-H23 was > 100 µM (inactive) each time. The GI50 is > 100 µM (inactive) in the assay on A549; over 100 µM in the assay on HCT-15; > 100 µM (inactive) in the assay with SN12C; > 100 µM (inactive) in the assay with HT-29; > 100 µM (inactive) in the assay with ACHN; > 100 µM (inactive) in the assay on SF-295. Also, the GI50 in the assay on DMS-114 and in the assay on TK-10 was > 100 µM (inactive) each time.

Regarding `CN/N=C(\C(=O)Nc1ccc(C)c(C)c1)C(C(=O)OC)c1nc2ccc([N+](=O)[O-])cc2nc1O` (stereo not given), the GI50 in the assay on SR was > 100 µM (inactive); in the assay with OVCAR-8, > 100 µM (inactive); in the assay with NCI-H522, 12.6 µM (inactive); in the assay with HCC 2998, > 100 µM (inactive); in the assay with SF-268, > 100 µM (inactive); with OVCAR-4 it was > 100 µM (inactive). The GI50 with HOP-92 was > 100 µM (inactive); in the assay with RPMI-8226, 52.7 µM (inactive); in the assay on SK-MEL-2, > 100 µM (inactive); in the assay with COLO 205, > 100 µM (inactive); with MOLT-4, > 100 µM (inactive); in the assay on NCI-H23, > 100 µM (inactive). For the same compound, the GI50 in the assay with A549 is > 100 µM (inactive); in the assay on HCT-15, 85.1 µM; in the assay on SN12C it was > 100 µM (inactive); in the assay with HT-29, > 100 µM (inactive); with ACHN it was > 100 µM (inactive); in the assay with SF-295, > 100 µM (inactive). Besides, the GI50 in the assay on DMS-114 was 42.2 µM (inactive); in the assay on TK-10, > 100 µM (inactive).

Regarding `Cc1ccc(NP(=O)(Oc2ccccc2)N(CCCl)CCCl)cc1` (stereo not given), the GI50 in the assay on SR is 95.5 µM (inactive); with OVCAR-8 it was 99.1 µM (inactive); in the assay with NCI-H522, > 100 µM (inactive); with HCC 2998, 3.56 µM (inactive); with SF-268, 80.5 µM (inactive); with OVCAR-4, 51.3 µM (inactive). In addition, the GI50 in the assay on HOP-92 was 96.4 µM (inactive); in the assay with RPMI-8226, 5.5 µM (inactive); with SK-MEL-2, 41.6 µM (inactive); in the assay on COLO 205, 31.6 µM (inactive); in the assay with MOLT-4 it was 9.04 µM (inactive); in the assay on NCI-H23, 61.5 µM (inactive). For the same compound, the GI50 in the assay with A549 was 48.2 µM (inactive); in the assay on HCT-15, 45.2 µM; in the assay on SN12C it was 91 µM (inactive); in the assay with HT-29 it was 26.1 µM (inactive); in the assay with ACHN, 34.6 µM (inactive); in the assay on SF-295, 67 µM (inactive). The GI50 in the assay on DMS-114 is 34.4 µM (inactive); with TK-10 it was > 100 µM (inactive).

Regarding `Cc1ccc2[nH]c3c(C)c4ccncc4c(C)c3c2c1`, the GI50 with SR is 0.528 µM (active); in the assay with OVCAR-8, 0.328 µM (active); in the assay with NCI-H522 it was 0.929 µM (active); in the assay with HCC 2998, 1.48 µM (inactive); in the assay with SF-268, 0.733 µM (active); in the assay with OVCAR-4, 1.08 µM (active). The GI50 was 0.553 µM (active) with HOP-92; 1.09 µM (active) in the assay on RPMI-8226; 1.59 µM (inactive) in the assay with SK-MEL-2; 0.873 µM (active) with COLO 205; 0.231 µM (active) in the assay with MOLT-4; 1.24 µM (inactive) in the assay with NCI-H23. Further, the GI50 with A549 was 0.966 µM (active); with HCT-15 it was 0.63 µM; with SN12C, 0.449 µM (active); in the assay with HT-29, 1.06 µM (active); with ACHN, 1.09 µM (active); with SF-295, 1.08 µM (active). In addition, the GI50 with DMS-114 is 0.369 µM (active); in the assay on TK-10, 3.81 µM (inactive).
